The results in this text go back to patent US20100267743A1, “3-(PHENOXYPYRROLIDIN-3-YL-METHYL)HETEROARYL, 3-(PHENYLPYRROLIDIN-3-YLMETHOXY)HETEROARYL, AND 3-(HETEROARYLPYRROLIDIN-3-YLMETHOXY)HETEROARYL COMPOUNDS” (priority 2009, published 2010).

One test concerns the target SERT (Homo sapiens, UniProt P31645). In words: hSERT radioligand binding assay (3H-citalopram). Also noted: expressed in transfected cells; host or cells: HEK-293. The following applies: hSERT membranes (HEK-293), 1.0 nM 3H-citalopram; for Ki: read-out: SERT pKi (converted). The procedure, abridged:
(§1)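 Membranes came from HEK-293 cells stably expressing hSERT (0.5 μg protein) or hNET (1 μg), with 3H-citalopram or 3H-nisoxetine respectively. Incubation was 60 min at 22° C in Tris buffer with 120 mM NaCl and 5 mM KCl, pH 7.4, followed by filtration and scintillation counting. pKi was derived by Cheng-Prusoff from IC50 and saturation-derived Kd.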

Another test has as its target NET (Homo sapiens, UniProt P23975). Briefly: hNET radioligand binding assay (3H-nisoxetine). Also noted: expressed in transfected cells; host or cells: HEK-293. The following applies: hNET membranes (HEK-293), 1.0 nM 3H-nisoxetine; for Ki: read-out: NET pKi (converted). The procedure, abridged: as §1

Chain of NET (P23975 whole entry): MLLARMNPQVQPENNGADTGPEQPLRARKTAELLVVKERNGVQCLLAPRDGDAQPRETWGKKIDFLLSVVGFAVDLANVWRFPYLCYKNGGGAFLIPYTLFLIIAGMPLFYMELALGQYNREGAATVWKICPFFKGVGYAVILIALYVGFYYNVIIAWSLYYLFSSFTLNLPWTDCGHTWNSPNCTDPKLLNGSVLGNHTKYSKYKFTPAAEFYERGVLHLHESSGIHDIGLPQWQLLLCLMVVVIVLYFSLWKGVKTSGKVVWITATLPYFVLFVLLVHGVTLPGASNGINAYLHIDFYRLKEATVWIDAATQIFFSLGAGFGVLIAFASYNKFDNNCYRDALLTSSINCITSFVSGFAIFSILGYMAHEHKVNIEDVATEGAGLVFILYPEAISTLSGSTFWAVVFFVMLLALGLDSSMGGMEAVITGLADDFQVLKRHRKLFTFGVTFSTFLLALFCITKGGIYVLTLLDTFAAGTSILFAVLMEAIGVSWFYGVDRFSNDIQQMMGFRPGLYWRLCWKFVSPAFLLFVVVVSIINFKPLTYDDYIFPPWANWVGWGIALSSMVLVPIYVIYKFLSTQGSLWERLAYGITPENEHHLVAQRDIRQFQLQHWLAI
Chain of SERT (P31645 whole entry): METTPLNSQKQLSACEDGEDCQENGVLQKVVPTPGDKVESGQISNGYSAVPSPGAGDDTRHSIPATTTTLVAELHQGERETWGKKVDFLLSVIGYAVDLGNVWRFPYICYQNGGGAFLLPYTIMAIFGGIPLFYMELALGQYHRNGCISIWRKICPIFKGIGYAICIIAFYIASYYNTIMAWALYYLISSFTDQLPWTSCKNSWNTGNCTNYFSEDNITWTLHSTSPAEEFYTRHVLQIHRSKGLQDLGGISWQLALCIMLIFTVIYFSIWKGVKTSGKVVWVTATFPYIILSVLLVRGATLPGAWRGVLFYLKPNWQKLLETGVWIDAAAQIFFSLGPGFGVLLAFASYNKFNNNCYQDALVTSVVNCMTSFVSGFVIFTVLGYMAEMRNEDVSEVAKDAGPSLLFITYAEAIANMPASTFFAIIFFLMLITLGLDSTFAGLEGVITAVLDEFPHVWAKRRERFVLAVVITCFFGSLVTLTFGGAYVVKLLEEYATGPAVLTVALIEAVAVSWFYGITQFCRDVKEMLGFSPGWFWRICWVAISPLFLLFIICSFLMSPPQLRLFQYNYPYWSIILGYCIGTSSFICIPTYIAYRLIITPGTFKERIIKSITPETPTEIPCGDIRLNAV

In the case of `Clc1cncc(C(Oc2cc(Cl)c(Cl)cc2Cl)C2CCNC2)c1` [Example 2-1, 3-Chloro-5-[(R)-(S)-pyrrolidin-3-y1-(2,4,5-trichlorophenoxy)methyl]pyridine], the Ki on SERT is at most 0.1 µM; at NET, at most 10 µM.

Take `Fc1cc(F)c(Cl)c(O[C@H](c2cncc(Cl)c2)[C@H]2CCNC2)c1Cl` [Example 2-4, 3-Chloro-5-[(S)-(2,6-dichloro-3,5-difluorophenoxy)-(S)-pyrrolidin-3-yl-methyl]-pyridine]: the Ki on SERT was at most 0.1 µM; at NET, at most 10 µM.

As for `Fc1ccc(F)c(O[C@H](c2cncc(Cl)c2)[C@H]2CCNC2)c1Cl` [Example 2-7, 3-Chloro-5-[(S)-(2-chloro-3,6-difluorophenoxy)-(S)-pyrrolidin-3-yl-methyl]-pyridine], the Ki is at most 0.1 µM at SERT and at most 10 µM at NET.

`COc1ccccc1O[C@H](c1cncc(Cl)c1)[C@H]1CCNC1` [Example 2-13, 3-Chloro-5-[(S)-(2-methoxyphenoxy)-(S)-pyrrolidin-3-yl-methyl]pyridine]: the Ki at SERT and on NET was at most 10 µM in each case.

With `Clc1cc(Cl)cc(O[C@H](c2cncc(Cl)c2)[C@H]2CCNC2)c1` [Example 2-16, 3-Chloro-5-[(S)-(3,5-dichlorophenoxy)-(S)-pyrrolidin-3-yl-methyl]pyridine], the Ki on SERT and on NET was at most 0.1 µM throughout.

In the case of `Fc1cc(Cl)cc(F)c1OC(c1cncc(Cl)c1)C1CCNC1` [Example 2-25, 3-Chloro-5-[(R)-(4-chloro-2,6-difluorophenoxy)-(S)-pyrrolidin-3-yl-methy1]-pyridine], the Ki at SERT and at NET was at most 0.1 µM throughout.

As to `Fc1cc(Cl)c(O[C@H](c2cncc(Cl)c2)[C@@H]2CCNC2)c(Cl)c1` [Example 2-26, 3-Chloro-5-[(R)-(2,6-dichloro-4-fluorophenoxy)-(S)-pyrrolidin-3-yl-methy1]-pyridine], the “SERT pKi” value at SERT is “≧7.0”. For the same compound, on NET, the “NET pKi” value is on record as “≧5.0”.

Turning to `Fc1cc(Cl)cc(Cl)c1OC(c1cncc(Cl)c1)C1CCNC1` [Example 2-27, 3-Chloro-5-[(R)-(2,4-dichloro-6-fluorophenoxy)-(S)-pyrrolidin-3-yl-methy1]-pyridine], the Ki at SERT and on NET was at most 0.1 µM in each case.

`Cc1cc(Cl)c(O[C@H](c2cncc(Cl)c2)[C@@H]2CCNC2)c(Cl)c1` [Example 2-28, 3-Chloro-5-[(R)-(2,6-dichloro-4-methylphenoxy)-(S)-pyrrolidin-3-yl-methy1]-pyridine]: on SERT, the “SERT pKi” value is reported as “≧7.0”. Besides, on NET, the “NET pKi” value is reported as “≧7.0”.

Take `Cc1cc(Cl)cc(C)c1O[C@H](c1cncc(Cl)c1)[C@@H]1CCNC1` [Example 2-29, 3-Chloro-5-[(R)-(4-chloro-2,6-dimethylphenoxy)-(S)-pyrrolidin-3-yl-methy1]-pyridine]: on SERT, the “SERT pKi” value was “≧7.0”. Also, at NET, the “NET pKi” value was “≧5.0”.

`Cc1cc(Cl)cc(Cl)c1OC(c1cncc(Cl)c1)C1CCNC1` [Example 2-30, 3-Chloro-5-[(R)-(2,4-dichloro-6-methylphenoxy)-(S)-pyrrolidin-3-yl-methy1]-pyridine]: the results for the Ki at SERT and at NET were at most 0.1 µM and at most 10 µM, respectively.

In the case of `Fc1cc(F)c(O[C@@H](c2cncc(Cl)c2)[C@H]2CCNC2)c(F)c1` [Example 2-33, 3-Chloro-5-[(R)-(S)-pyrrolidin-3-yl-(2,4,6-trifluorophenoxy)methyl]pyridine], the Ki at SERT and at NET was at most 0.1 µM throughout.

Consider `Fc1cncc([C@H](Oc2cc(Cl)c(Cl)cc2Cl)[C@H]2CCNC2)c1` [Example 2-34, 3-Fluoro-5-[(R)-(S)-pyrrolidin-3-yl-(2,4,5-trichlorophenoxy)-methyl]pyridine], for which the values for the Ki on SERT and on NET were at most 0.1 µM and at most 10 µM, respectively.

With `Fc1cncc([C@H](Oc2c(F)cc(F)cc2F)[C@H]2CCNC2)c1` [Example 2-35, 3-Fluoro-5-[(R)-(S)-pyrrolidin-3-yl-(2,4,6-trifluorophenoxy)-methyl]pyridine], the Ki at SERT and on NET was at most 0.1 µM each time.

As to `Fc1cncc([C@@H](Oc2c(Cl)c(F)cc(F)c2Cl)[C@H]2CCNC2)c1` [Example 2-42, 3-[(S)-(2,6-Dichloro-3,5-difluorophenoxy)-(S)-pyrrolidin-3-yl-methyl]-5-fluoropyridine], the Ki on SERT is at most 0.1 µM; at NET, at most 10 µM.

`Cc1cc(Cl)cc(C)c1OC(c1cncc(F)c1)C1CCNC1` [Example 2-46, 3-[(R)-(4-Chloro-2,6-dimethylphenoxy)-(S)-pyrrolidin-3-yl-methy1]-5-fluoropyridine]: the values for the Ki at SERT and on NET were at most 0.1 µM and at most 10 µM, respectively.

Regarding `Fc1cncc(C(Oc2ccc(Cl)cc2Cc2ccccc2)C2CCNC2)c1` [Example 2-47, 3-[(R)-(2-Benzy1-4-chlorophenoxy)-(S)-pyrrolidin-3-yl-methy1]-5-fluoropyridine], the Ki on SERT and at NET was at most 0.1 µM each time.

Take `Fc1cncc(C(Oc2c(F)ccc(F)c2Cl)C2CCNC2)c1` [Example 2-50, 3-[(S)-(2-Chloro-3,6-difluorophenoxy)-(S)-pyrrolidin-3-yl-methy1]-5-fluoropyridine]: the Ki on SERT is at most 0.1 µM; at NET, at most 10 µM.

As for `CCc1cc(F)cc(F)c1O[C@H](c1cncc(F)c1)[C@@H]1CCNC1` [Example 2-57, 3-[(R)-(2-Ethy1-4,6-difluorophenoxy)-(S)-pyrrolidin-3-yl-methyl]-5-fluoropyridine], on SERT, the “SERT pKi” value is “≧7.0”. For the same compound, at NET, the “NET pKi” value was “≧7.0”.

For `CCc1cc(F)ccc1O[C@H](c1cncc(F)c1)[C@@H]1CCNC1` [Example 2-58, 3-[(R)-(2-Ethy1-4-fluorophenoxy)-(S)-pyrrolidin-3-yl-methyl]-5-fluoropyridine], the “SERT pKi” value at SERT was “≧7.0”. Further, on NET, the “NET pKi” value was “≧7.0”.

Turning to `Cc1cc(Cl)ccc1O[C@H](c1cncc(F)c1)[C@H]1CCNC1` [Example 2-61, 3-[(S)-(4-Chloro-2-methylphenoxy)-(S)-pyrrolidin-3-yl-methyl]-5-fluoropyridine], the results for the Ki on SERT and at NET were at most 0.1 µM and at most 10 µM, respectively.

For the compound `COc1ccccc1O[C@H](c1cncc(F)c1)[C@H]1CCNC1` [Example 2-63, 3-Fluoro-5-[(S)-(2-methoxyphenoxy)-(S)-pyrrolidin-3-yl-methyl]pyridine], the Ki on SERT and at NET was at most 10 µM throughout.

Regarding `Fc1cncc([C@@H](Oc2cc(Cl)cc(Cl)c2)[C@H]2CCNC2)c1` [Example 2-66, 3-[(S)-(3,5-Dichlorophenoxy)-(S)-pyrrolidin-3-yl-methyl]-5-fluoropyridine], the Ki at SERT and at NET was at most 0.1 µM each time.

Consider `Clc1ccc(Cl)c(O[C@@H](c2cccnc2)[C@H]2CCNC2)c1Cl` [Example 2-67, 3-[(R)-(S)-Pyrrolidin-3-yl-(2,3,6-trichlorophenoxy)methyl]pyridine], for which the Ki on SERT and at NET was at most 0.1 µM each time.

As for `Fc1cc(F)c(O[C@@H](c2cccnc2)[C@H]2CCNC2)c(F)c1` [Example 2-68, 3-[(R)-(S)-Pyrrolidin-3-yl-(2,4,6-trifluorophenoxy)methyl]pyridine], the Ki on SERT and on NET was at most 10 µM each time.

For the compound `Fc1cc(F)c(O[C@H](c2cccnc2)[C@H]2CCNC2)c(F)c1` [Example 2-69, 3-[(S)-(S)-Pyrrolidin-3-yl-(2,4,6-trifluorophenoxy)methyl]pyridine], the Ki at SERT and at NET was at most 0.1 µM in each case.

Take `Fc1ccc(O[C@H](c2cccnc2)[C@H]2CCNC2)c(F)c1` [Example 2-71, 3-[(S)-(2,4-Difluorophenoxy)-(S)-pyrrolidin-3-yl-methyl]pyridine]: the Ki on SERT and on NET was at most 0.1 µM each time.

`Clc1cccc(Cl)c1O[C@H](c1cccnc1)[C@H]1CCNC1` [Example 2-73, 3-[(S)-(2,6-Dichlorophenoxy)-(S)-pyrrolidin-3-yl-methyl]pyridine]: the Ki on SERT and on NET was at most 0.1 µM each time.

Turning to `Cc1ccc(Cl)c(OC(c2cccnc2)[C@H]2CCNC2)c1Cl` (stereo partly drawn) [Example 2-74, 3-[(S)-(2,6-Dichloro-3-methylphenoxy)-pyrrolidin-3-yl-methyl]pyridine], the Ki at SERT and on NET was at most 0.1 µM in each case.

As for `COc1ccccc1OC(c1cccnc1)[C@H]1CCNC1` (stereo partly drawn) [Example 2-81, 3-[(S)-(2-Methoxyphenoxy)-pyrrolidin-3-yl-methyl]pyridine], the Ki is at most 10 µM at SERT and at most 0.1 µM at NET.

With `Fc1cc(F)c(O[C@@H](c2ccncc2)[C@H]2CCNC2)c(F)c1` [Example 3-1, 4-[(R)-(S)-Pyrrolidin-3-yl-(2,4,6-trifluorophenoxy)methyl]pyridine], the Ki on SERT and on NET was at most 10 µM each time.

Consider `Fc1cc(F)c(O[C@H](c2ccncc2)[C@H]2CCNC2)c(F)c1` [Example 3-2, 4-[(S)-(S)-Pyrrolidin-3-yl-(2,4,6-trifluorophenoxy)methyl]pyridine], for which the Ki on SERT and on NET was at most 0.1 µM each time.

On to `Fc1ccc(OC(c2ccncc2)[C@H]2CCNC2)c(F)c1` (stereo partly drawn) [Example 3-3, 4-[(S)-(2,4-Difluorophenoxy)-pyrrolidin-3-yl-methyl]pyridine], for which the Ki at SERT and at NET was at most 10 µM throughout.

For the compound `Clc1cccc(Cl)c1O[C@H](c1ccncc1)[C@H]1CCNC1` [Example 3-5, 4-[(S)-(2,6-Dichlorophenoxy)-(S)-pyrrolidin-3-yl-methyl]pyridine], the Ki at SERT and on NET was at most 0.1 µM each time.
